In general, MIC refers to the lowest concentration that inhibits growth of the organism.

A value given as a limit tells only on which side of the number the result lay.

Experimental findings from patent US5254533A, “Elfamycin” (Rhone-Poulenc Rorer S.A., priority 1990, dated 1993) are described below.

Common to all, as to experiment: MIC, antibacterial activity (agar dilution)
Type in all cases: cell-based
For orientation: In agar dilution the substance is mixed into plates at graded concentrations.

Assay [1] has as its system Staphylococcus aureus S tA 1. The following applies: STA1, Mueller Hinton Agar, about 18 h at about 37° C.
The test system of assay [2] is Staphylococcus aureus Weichbrodt. The following applies: Mueller Hinton Agar, about 18 h at about 37° C.
A further assay relates to Staphylococcus epidermis. As to conditions: Mueller Hinton Agar, about 18 h at about 37° C.
The next assay concerns Streptococcus uberis 3. The following applies: Mueller Hinton Agar, about 18 h at about 37° C.
Assay [3] relates to Bacteroides thetaiotaomicron ATCC 29741. As to conditions: ATCC29741, anaerobic, Mueller Hinton Agar + 2% Fildes, about 48 h at about 37° C. As to the method: (§1) Description of the test method used
(§2) The strains used, identified in the following table, were thawed at the time of use and then diluted to obtain the following concentrations:
(§3) 10^7 bacteria/ml for the aerobic bacteria
(§4) 10^6 bacteria/ml for the anaerobic bacteria.
(§5) A stock suspension of the product of formula (II) was prepared at a concentration of 3000 mg/1 in water. It was then diluted with water to obtain concentrations of 300 mg/l, 100 mg/l, 50 mg/l and 25 mg/l.
(§6) The culture media were the following:
(§7) Mueller Hinton Agar (MHA) for the aerobic cultures
(§8) Mueller Hinton Agar (MHA)+2% Fildes (MHA) for the anaerobic cultures.
(§9) Each dilution of product was added to 20 mls of the culture medium maintained supercooled at 45° C., and the medium was then poured into Petri dishes. After gentle agitation, the dishes were dried open for about 1 hour at about 37° C.
(§10) Inoculation was carried out with a DENLEY multipoint inoculator, which deposited 10^-3 ml of each inoculum per spot.
(§11) Reading was performed after about 18 hours of incubation at about 37° C. for the aerobes and about 48 hours at about 37° C. for the anaerobes.
(§12) The minimal inhibitory concentration (MIC) was the lowest concentration for which no growth was observed.

The test system of the next assay is Clostridium septicum. As to conditions: anaerobic, Mueller Hinton Agar + 2% Fildes, about 48 h at about 37° C. As to the method: as §1, §2, §3, §4, §5, §6, §7, §8, §9, §10, §11, §12
The subject of assay [4] is Enterobacter cloacae IP 085. As to conditions: IP085, Mueller Hinton Agar, about 18 h at about 37° C.
For the next assay, the system named is Pasterella multocida IP. As to conditions: Mueller Hinton Agar, about 18 h at about 37° C.

Turning to `C/C=C\C=C\C1OC(O)(C(CC)C(=O)NC/C=C/C=C(\C)C(OC)C(C)C2CC(O)C(/C=C/C=C/C=C/C(=O)O)O2)C(O)C(O)C1(C)C` (centres unmarked) [formula (II)], the MIC was more than 300 µg/mL in assay [1]; more than 300 µg/mL in assay [2]; more than 300 µg/mL against Staphylococcus epidermis; 50 µg/mL against Streptococcus uberis 3; more than 100 µg/mL in assay [3]; more than 100 µg/mL with Clostridium septicum. The MIC (in assay [4]; against Pasterella multocida IP) was more than 300 µg/mL throughout.
